According to ChEMBL document CHEMBL5614424, “Natural Product-Inspired Discovery of Naphthoquinone-Furo-Piperidine Derivatives as Novel STAT3 Inhibitors for the Treatment of Triple-Negative Breast Cancer” (J Med Chem, 2024):

How the values were obtained:
[1] = system: MDA-MB-231; assay: Antiproliferative activity against human MDA-MB-231 cells assessed as cell viability incubated for 48 hrs measured after additional incubation with MTT; format: functional, cell-based; details: MDA-MB-231, 48 h
[2] = system: MDA-MB-468; assay: Antiproliferative activity against human MDA-MB-468 cells assessed as cell viability incubated for 48 hrs measured after additional incubation with MTT; format: functional, cell-based; details: MDA-MB-468, 48 h
[3] = Antiproliferative activity against human MCF-10A cells assessed as cell viability incubated for 48 hrs measured after additional incubation with MTT; format: toxicity, cell-based
[4] = system: L02; assay: Antiproliferative activity against human L02 cells assessed as cell viability incubated for 48 hrs measured after additional incubation with MTT; format: functional, cell-based; details: L02, 48 h

O=C1C(=O)c2c(oc3c2CCN(C(=O)c2ccc(C(F)(F)F)cc2)C3)-c2ccccc21
IC50 [1]: 14.7 µM
IC50 [2]: 14.7 µM

Cc1ccc(C(=O)N2CCc3c(oc4c3C(=O)C(=O)c3ccccc3-4)C2)cc1
IC50 [1]: 14.2 µM
IC50 [2]: 16.9 µM

COC(=O)CCN1CCc2c(oc3c2C(=O)C(=O)c2ccccc2-3)C1
IC50 [1]: 5.72 µM
IC50 [2]: 4.13 µM
IC50 at 48 h [3]: 4.55 µM
IC50 [4]: 8.51 µM

CC(=O)c1cc2c(o1)C(=O)C(=O)c1ccccc1-2
IC50 [1]: 1.43 µM
IC50 [2]: 2.51 µM
IC50 at 48 h [3]: 6.23 µM
IC50 [4]: 7.25 µM

CNC(=O)[C@H](Cc1ccccc1)N1CCc2c(oc3c2C(=O)C(=O)c2ccccc2-3)C1
IC50 [1]: 8.12 µM
IC50 [2]: 8.05 µM

N#Cc1ccc(C(=O)N2CCc3c(oc4c3C(=O)C(=O)c3ccccc3-4)C2)cc1
IC50 [1]: 14.8 µM
IC50 [2]: 12.6 µM

COC(=O)[C@H](CC(C)C)N1CCc2c(oc3c2C(=O)C(=O)c2ccccc2-3)C1
IC50 [1]: > 20 µM
IC50 [2]: > 20 µM

COC(=O)CC[C@@H](C(=O)OC)N1CCc2c(oc3c2C(=O)C(=O)c2ccccc2-3)C1
IC50 [1]: 12.7 µM
IC50 [2]: 12.2 µM

COC(=O)[C@H](Cc1ccc(O)cc1)N1CCc2c(oc3c2C(=O)C(=O)c2ccccc2-3)C1
IC50 [1]: 7.26 µM
IC50 [2]: 14.3 µM

COC(=O)CN1CCc2c(oc3c2C(=O)C(=O)c2ccccc2-3)C1
IC50 [1]: 2.5 µM
IC50 [2]: 2.42 µM
IC50 at 48 h [3]: 4.89 µM
IC50 [4]: 5.46 µM

COC(=O)[C@H](Cc1ccccc1)N1CCc2c(oc3c2C(=O)C(=O)c2ccccc2-3)C1
IC50 [1]: 8.26 µM
IC50 [2]: 11.4 µM

CN1CCN(C(=O)N2CCc3c(oc4c3C(=O)C(=O)c3ccccc3-4)C2)CC1
IC50 [1]: 6.08 µM
IC50 [2]: 5.84 µM

COc1ccc(C(=O)N2CCc3c(oc4c3C(=O)C(=O)c3ccccc3-4)C2)cc1OC
IC50 [1]: 4.59 µM
IC50 [2]: 5.82 µM
IC50 at 48 h [3]: 7.96 µM
IC50 [4]: 7.43 µM

CNC(=O)CCCN1CCc2c(oc3c2C(=O)C(=O)c2ccccc2-3)C1
IC50 [1]: 7.45 µM
IC50 [2]: 9.45 µM

O=C1C(=O)c2c(oc3c2CCN(C(=O)c2cccnc2)C3)-c2ccccc21
IC50 [1]: 5.86 µM
IC50 [2]: 5.89 µM
IC50 at 48 h [3]: 9.35 µM
IC50 [4]: 13.3 µM

O=C1C(=O)c2c(oc3c2CCN(C(=O)c2ccc(Cl)cc2)C3)-c2ccccc21
IC50 [1]: 13 µM
IC50 [2]: 10.7 µM

C[C@H]1COC2=C1C(=O)C(=O)c1c2ccc2c1CCCC2(C)C [CRYPTOTANSHINONE]
IC50 [1]: > 20 µM
IC50 [2]: > 20 µM
IC50 at 48 h [3]: > 20 µM
IC50 [4]: > 20 µM

CNC(=O)[C@H](Cc1ccc(O)cc1)N1CCc2c(oc3c2C(=O)C(=O)c2ccccc2-3)C1
IC50 [1]: 7.26 µM
IC50 [2]: 10.4 µM

O=C1C(=O)c2c(oc3c2CCN(CCCCO)C3)-c2ccccc21
IC50 [1]: 6.41 µM
IC50 [2]: 9.48 µM

CNC(=O)CN1CCc2c(oc3c2C(=O)C(=O)c2ccccc2-3)C1
IC50 [1]: 6.51 µM
IC50 [2]: 4.78 µM

O=C1C(=O)c2c(oc3c2CCN(C(=O)N2CCOCC2)C3)-c2ccccc21
IC50 [1]: 6.43 µM
IC50 [2]: 5.41 µM
IC50 at 48 h [3]: 16.8 µM
IC50 [4]: > 20 µM
